Values of other authors, collected in PMC12440824, “Chimeric deubiquitinase engineering reveals structural basis for specific inhibition of the mitophagy regulator USP30” (Nature Structural & Molecular Biology, 2025).
Like-named read-outs stand apart in the source and are kept apart here.

Legend:
recombinant USP30 = conditions: literature values in Extended Data Fig. 1; ref Extended Data Fig. 1; read-out: Ub-Rho IC50; cited from earlier work
USP30 [1] = conditions: literature values in Fig. 1b / Extended Data Fig. 1; ref Extended Data Fig. 1; read-out: Cellular ABPP IC50; cited from earlier work
USP30 [2] = tested on: USP30; set-up: method as in Extended Data Fig. 1; conditions: ref Extended Data Fig. 1; read-out: Tetra-Ub cleavage IC50; cited from earlier work

## N#Cc1cccc(-c2nnc(C(=O)NC3CC(CF)N(C#N)C3)o2)c1 (stereo not shown) [Example 3]
Recombinant USP30
  IC50: 13 nM

## N#CN1CC[C@@H](NC(=O)c2cc(-c3ccccc3Oc3ccccc3)n[nH]2)C1 [FT385]
Recombinant USP30
  IC50: 2 nM
USP30 [1]
  IC50: ~60 nM

## COc1cc(NC(=O)[C@H](Cc2ccccc2)NC(=O)c2ccc(F)cc2)ccc1S(=O)(=O)NC1CCOCC1 [I-150]
Recombinant USP30
  IC50: < 50 nM

## CC(C)(C)NS(=O)(=O)c1cccc2c(NC(=O)[C@H](Cc3ccccc3)NC(=O)C3CCCCC3)cccc12 [MF-094]
Recombinant USP30
  IC50: 120 nM
USP30 [1]
  IC50: < 200 nM

## C=C1C(=O)C23CCC1CC2C12CCCC(C)(COC1=O)C2CC3O (stereo not shown) [S3]
USP30 [2]
  IC50: 10000 to 50000 nM
